Entries after “also recorded” stand apart in the source; their conditions may differ. Read-outs that look alike come from different tables or passages of the source.
Columns and labels:
[1] = system: L2, CPA-47 and A549 cells; assay: Cytotoxicity measured by LDH release; details: 100 μM, 48 hours
[2] = system: mice; details: 48 hours; for deaths: 4 mice
Description: Animals and treatments. Balb/c male mice that were 6-8 weeks of age were utilized in these studies (Taconic, Germantown, N.Y.). Mice were acclimated to 22° C. in an environmentally controlled room (12-hr light cycles) at least 6 days prior to treatment. Toxicity studies were employed using a moving average method previously described by Weil (Weil, Biometrics 8:249-263 (1952)). Groups of 4 mice were given MnTBAP (50, 88, 153 and 268 mg/kg, ip) and observed over a 48 hour time period.
MnTBAP toxicity was assessed using a moving average method that consisted of four geometric dose groups (50, 88, 153 and 268 mg/kg, ip) of 4 mice each over 48 hours.

[3] = system: bleomycin-induced pulmonary fibrosis; assay: Bleomycin-induced pulmonary fibrosis in mice
Description: Noninvasive measurement of airway constriction in mice. The baseline resistance in unrestrained, conscious mice was assessed by whole body barometric plethysmography (Buxco Electronics, Troy, N.Y.). The techniques used were similar to those described by Zhu et al, J. Clin. Invest. 103(6):779-88 (1999)). Mice were placed in whole body plethysmographs with fast differential transducers interfaced to a computer. Measurements were made of respiratory rates, tidal volumes and enhanced pause (PENH). Airway constriction was expressed as PENH=[(Te/0.3Tr)−1]×[2Pef/3Pif], where Te=expiratory time (seconds), Tr=relaxation time (seconds), Pef=peak expiratory flow ([…]), and Pif=peak inspiratory flow (ml/second). Animals were allowed to equilibrate in the chambers for 15 minutes and then PENH was calculated over a 5-minute period.
Hydroxyproline measurement. The lungs were dried at 80° C. until a constant weight is obtained. The dried lungs were hydrolyzed under vacuum in a glass vial in 1 ml of 12 N HCl at 120° C. overnight. The samples were lyophilized and assayed for hydroxyproline content using chloramine-T as previously described (Woessner, Arch. Biochem. Biophys. 93:440-447 (1961)). Histopathology. The lungs were fixed in 4% paraformaldehyde for 24 hours and then processed for paraffin embedding. Sections of lung were stained with routine hematoxylin and eosin or with a Masson trichrome stain to assess the degree of fibrosis. The extent of lung injury and fibrosis was graded by four pathologists, blinded as to the treatment group, on a scale of one (no injury) to ten (severe injury/fibrosis). The major criteria examined included interstitial thickening, collagen deposition, type 2 cell hyperplasia, and inflammatory cell infiltration. Statistical Analyses. Data was analyzed using a two-way analysis of variance (ANOVA) or a one-way ANOVA if no significant interactions were found with the two-way ANOVA. Significant differences between groups were assessed using a Newman-Keuls multiple comparison test. Data was analyzed using a computer program, Prizm (Graph Pad Software, San Diego, Calif.). Statistical significance was set at p<0.05. Results Toxicity and Pharmacokinetic Assessment of MnTBAP in Mice
Mice were randomized into 4 groups using a two by two contingency table where two groups received either saline or bleomycin (3.5 U/kg body weight) by intratracheal instillation. Two groups also received either saline or MnTBAP (5 mg/kg body weight) by ip injection twice daily for 14 days.
Bleomycin given by intratracheal instillation produces a marked airway and alveolar fibrotic response (Evans et al, Am Rev. Respir. Dis. 125(1):89-94 (1982)). Mice were assessed for changes in airway function by measuring a marker, enhanced pause (PENH), of airway narrowing using non-invasive whole body barometric plethysmography. […] Lung fibrosis was also assessed by measuring hydroxyproline content in the lung as an index of collagen accumulation.
One lung from each mouse was instillation fixed with 4% paraformaldehyde and paraffin embedded for histopathology assessment. Tissue sections were stained with hematoxylin and eosin or with Masson trichrome stain to assess the degree of lung injury/fibrosis.

[4] = Pharmacokinetic profile of MnTBAP in mice (serum and lung); details: 10 mg/kg ip; for Peak Level (Co): two-compartment fit
[5] = system: rat lung epithelial cells, L2; bovine endothelial cells, CPA-47
Description: (§1) Two non-tumor cell lines (rat lung epithelial cells, L2; bovine endothelial cells, CPA-47) and one tumor cell line (human adenocarcinoma lung cells, A549) were examined for cell proliferation in the presence or absence of manganic porphyrins. Cells were plated in 24 well plates at 10,000 cells per well in the presence of cytotoxic agent (0-10 mM paraquat) for 24-48 hours plus increasing concentrations of MnTBAP, MnMm-4-PyP and their zinc analogs.

[6] = system: tumor cells (A549)
Description: as §1

O=C(O)c1ccc(-c2c3nc(c(-c4ccc(C(=O)O)cc4)c4ccc([n-]4)c(-c4ccc(C(=O)O)cc4)c4nc(c(-c5ccc(C(=O)O)cc5)c5ccc2[n-]5)C=C4)C=C3)cc1.[Mn+3] [MnTBAP, manganese (III) tetrakis (4-benzoic acid) porphyrin]
cytotoxicity (LDH release) [1]: None of the compounds produced cytotoxicity
deaths ([2]; 50 mg/kg ip): no deaths
deaths ([2]; 88 mg/kg ip): 1
LD50 ([2]; ip, 95% confidence interval 98-104 mg/kg): 100 mg/kg
decrease in airway constriction (PENH) produced by bleomycin ([3]; 5 mg/kg ip twice daily, 14 days): 30%
bleomycin-induced weight loss ([3]; FIG. 8, after 5 days to end of study): attenuates bleomycin-induced weight loss
bleomycin-induced airway constriction and collagen accumulation ([3]; FIG. 9, PENH and hydroxyproline, 14 days): attenuates bleomycin-induced airway constriction and collagen accumulation
bleomycin-induced lung injury by histopathology ([3]; FIGS. 10, 11): attenuates bleomycin-induced pulmonary injury; also recorded: attenuates bleomycin-induced lung injury
PENH marker ([3]; MnTBAP alone): did not affect the PENH marker
hydroxyproline content of the lung ([3]; MnTBAP alone): little effect
lung histology ([3]; MnTBAP alone): no effect on lung histology
pathology score ([3]; MnTBAP alone): no effect on the pathology score
weight loss compared to saline control ([3]; MnTBAP alone 5 mg/kg ip twice daily, 14 days): did not cause weight loss
maximum average loss of initial body weight ([3]; bleomycin 3.5 U/kg it plus MnTBAP 5 mg/kg ip twice daily, 14 days, bleomycin alone 20%): 10%
collagen accumulation by trichrome staining ([3]; bleomycin plus MnTBAP): decreased the collagen accumulation
attenuation of bleomycin pathology score ([3]; fibrosis score scale 0-8, 14 days): 28%
interstitial thickening and inflammatory responses produced by bleomycin ([3]; histopathology, hematoxylin and eosin): attenuated the marked interstitial thickening and inflammatory responses
decrease in hydroxyproline content caused by bleomycin ([3]; lung, 5 mg/kg ip twice daily, 14 days): 23%
attenuation of bleomycin-induced increases in the various indices ([3]; physiologic, biochemical and pathology indices): roughly 30%
accumulation in the lung [4]: does not accumulate in the lung
Distribution half-life (T1/2) ([4]; lung): 0.233 h
Elimination half-life (T1/2) ([4]; lung): 9.5 h
Peak Level (Co) ([4]; lung): 80 μg/g protein
Distribution half-life (T1/2) ([4]; serum): 0.45 h
Elimination half-life (T1/2) ([4]; serum): 9.5 h
Peak Level (Co) ([4]; serum): 42 mg/L
cytotoxic effects of paraquat in non-tumor cells [5]: protected non-tumor cells against the cytotoxic effects of paraquat
paraquat-mediated cytotoxicity in tumor cells [6]: potentiated paraquat-mediated cytotoxicity
relative efficiency of potentiation of paraquat cytotoxicity ([6]; A549): more efficient than MnTM-4-PyP
